Laboratory results: patent US11090391B2, “Protein nanocages with enhanced mucus penetration for targeted tissue and intracellular delivery” (The Johns Hopkins University, priority 2016, dated 2021)
Values joined by “and” are separate entries in the source; they are usually repeats but may differ in a detail not shown here. Equal values may be shown once.

Experiments:
3LL subcutaneous tumor = test: Tumor growth, 3LL subcutaneous tumor model, tail vein injection; format: in vivo; settings: day 10, injections at days 0, 2, 4, 6, 8
Method: […] was injected at the tail vein to assay the effect on tumor growth in a 3LL subcutaneous tumor model at several time points (0, 2, 4, 6, and 8 days post tumor development). At day 10 post tumor development, the tumor volume was reduced in the animals treated with AF, as well as in the animals treated with […] treatment.

Hif-1α = Hif-1α expression, western blotting in 3LL cells; format: cell-based, mouse; settings: 0.625 to 2.5 μM AF, dose- and time-dependent
Method: The inhibition was dose-dependent, i.e., increasing the amount of AF in the free AF or that in […] from 0.625 μM to 1.25 μM, further to 2.5 μM, decreased the level of Hif-1α expression. The inhibition was also time-dependent, i.e., the inhibition was more prominent after a 6 hour-incubation than a 24 h-incubation, and even more prominent than a 48 h-incubation. Hif-1α, a marker for tumor hypoxia, is an indicator of cancer progression, metastasis, and drug resistance in clinic.

3LL tumor spheroids = test: Growth delay of 3D cell spheroids; format: cell-based, mouse; settings: 10 μM DOX, up to 11 days
Method: For cytotoxicity and growth delay experiments of 3D cell spheroids, 5×10^3 cells were seeded into the 96-well plates containing agarose. […] The diameters of tumor spheroids were recorded with a Zeiss Axiovert 200 phase-contrast microscope (Carl Zeiss) at the indicated time points.

[1] = system: 3LL-Luc orthotopic proximal lung cancer; test: In vivo anti-cancer efficacy, orthotopic proximal lung cancer model; parameters: species or system mouse
Text: To evaluate the efficacy of PEG-FTn-DOX for treating lung airway cancer, an aggressive orthotopic mouse model was established of proximal lung cancer in inbred mice with intact host immunity. The model was established via intratracheal intubation of cancer cells into the tracheal and bronchial epithelium of lung airways (DuPage M, et al., Nature protocols, 4:1064-1072 (2009)), which was relevant to small cell lung cancer and squamous-cell lung cancer. Briefly, female C57BL/6 mice (6-8 weeks) were inoculated with 2.5×10^4 3 LL-Luc cells in 50 μL of DMEM medium via intratracheal intubation using a 22 G×1″ Safelet catheter (Exel International). Three days after the inoculation, bioluminescence signal in the lung was observed using a Xenogen IVIS Spectrum optical imaging system. […] The tumor growth was monitored at various time points using an IVIS imaging system and the bioluminescence signal in lung at different time points was quantitatively analyzed by the Living Image® (Caliper Life Sciences) software. The survival of mice was recorded daily, and data was analyzed by Kaplan-Meier survival curve.
The luciferase activity of 3LL-Luc was visualized and quantified by a Xenogen IVIS Spectrum optical imaging system. In brief, mice were anesthetized with 2% isoflurane in O2 and received intraperitoneal injection of D-luciferin solution in PBS at a dose of 150 mg/kg. Serial images were acquired between 5 and 20 minutes after the D-luciferin administration, and the bioluminescence signal intensity was quantified by the Living Image® software.

3LL cells = test: Intracellular trafficking, confocal microscopy; format: cell-based, mouse
[2] = In vitro pH-sensitive DOX release, dialysis; format: physicochemical
Method: At designated times up to 6 days, 150 μL of solution outside the dialysis bag was collected and the same amount of fresh PBS was added back. After 3 days of incubation, the buffer was adjusted to pH 5.0 to induce the release of DOX from PEG-FTn. The concentrations of released free DOX at varying time points were measured by HPLC.

[3] = system: 3LL-based tumor spheroids; test: Penetration of DOX formulations in tumor spheroids; format: cell-based, mouse; settings: 10 μM DOX concentration
Method: (§1) Multicellular tumor spheroid models consisting of different cancer cell lines were prepared by modifying a previously reported protocol (Friedrich J, et al, Nature Protocols, 4:309-324 (2009)). Briefly, 50 μL DMEM medium containing 1.5% agarose (wt/vol) was plated onto each well of a 96-well microtiter plate under sterile conditions. After the agarose solidifies, the plates were stored at room temperature until use. For the penetration study, 5×10^3 cells were seeded onto the agarose-plated 96-well plates. After 4-5 days culture to obtain multicellular tumor spheroids (400-500 μm in diameter), the tumor spheroids were carefully transferred into glass bottom dishes. […] After the 2-hour incubation, the cells were observed using confocal microscopy with Z-stack imaging at ˜10 μm intervals. […] The 3D images of spheroids were reconstructed by ZEN microscopy software (Carl Zeiss). For analyzing the penetration distance, the radial intensity distribution profile was determined using a custom-made MATLAB code where αtumor is the radius of individual spheroids and r is the radial distance from the spheroid center (r/αtumor=0 and 1 indicate the center and edge of the tumor spheroid, respectively). […] Quantification analysis of signal intensity was performed with ImageJ software (NIH).
(§2) Multicellular tumor spheroids were prepared and post-treatment analyzed as described in Example 4.

[4] = Physicochemical properties (hydrodynamic diameter, ζ-potential, drug loading)
Method: The DOX conjugated PEG-FTn is denoted as FTn/FTn-PEG2k/DOX. […] The mixture was incubated for 1 hour and 1.5 mg EDC was added to activate a carboxyl group of each DOX-linker conjugate. The resultant compounds were analyzed using high-performance liquid chromatography (HPLC, Varian Inc.) equipped with a C18 reverse phase column. […] The final product was extensively dialyzed (10 kDa MWCO; Thermo Scientific) and purified with a PD-10 column.

H460-based spheroids = test: Penetration of DOX formulations in tumor spheroids; format: cell-based, human
Method: as §1, §2

A549-based spheroids = test: Penetration of DOX formulations in tumor spheroids; format: cell-based, human
Method: as §1, §2

H1975-based spheroids = test: Penetration of DOX formulations in tumor spheroids; format: cell-based, human
Method: as §1, §2

[5] = single intratracheal dose 0.25 mg/kg, 11 days after treatment

Substance	tumor volume (3LL subcutaneous tumor)	Hif-1α expression (Hif-1α)	delay of spheroid growth compared to free DOX (3LL tumor spheroids)	progression-free survival ([1]; after 60 days)	decrease in bioluminescence signal intensity compared to free DOX-treated mice [1, 5]	decrease in bioluminescence signal intensity compared to untreated mice [1, 5]	DOX found in cytoplasm compared with nucleus (3LL cells; 30 min after addition)	DOX found in cytoplasm compared with nucleus (3LL cells; 2 h after addition)	colocalization with lysosomes (3LL cells; 2 hours after addition)	intracellular localization of DOX (3LL cells; 2 hours after addition)	maximum release of DOX ([2]; pH 5.0, after 4 hours)	DOX released ([2]; pH 7.4, over 3 days, 37° C.)	distribution in spheroids (3D confocal images) [3]	mean fluorescence signal intensity in the entire spheroid vs free DOX [3]	DOX molecules per PEG-FTn [4]	Hydrodynamic diameter [4]	ζ-potential [4]	penetration compared to free DOX (H460-based spheroids)	penetration compared to free DOX (A549-based spheroids)	penetration compared to free DOX (H1975-based spheroids)
Acriflavine [AF]	reduced	inhibited Hif-1α expression	–	–	–	–	–	–	–	–	–	–	–	–	–	–	–	–	–	–
FTn/FTn-PEG2k/DOX: DOX conjugated to FTn/FTn-PEG2k via acid-sensitive cis-aconityl linker	–	–	superior ability of delaying the growth	60%	17 fold	40 fold	~95%	~55%	colocalized with lysosomes	observed in both the cytoplasm and nucleus	~80%	negligible	uniformly distributed throughout the entire tumor spheroid	significantly greater	88±5 and 88 ± 22	15.3 ± 3.2 nm	−7.4 ± 2.8 mV	Improved penetration	Improved penetration	Improved penetration
